Measured values taken from patent US12643867B2, “Compositions and uses thereof” (University of Virginia Patent Foundation, priority 2017, dated 2026).
Where two headings read alike, the source gives them in different places.

What was measured:
[1] = target: T1, recombinant DGKα (Rattus norvegicus, UniProt P51556); assay: Gel-based ATP acyl phosphate chemical proteomic assay; assay type: binding; details: for blockade of DGKα ATP probe labeling: compounds 100 μM (ATP 1 mM; RF001 at indicated concentrations), probe 10 μM
T1 construct: expressed in transfected cells; host or cells: HEK293T (SILAC HEK293T for LC-MS)
Method: Cell pellets were resuspended in kinase buffer (Dulbecco's PBS (DPBS, Hyclone), 20 mM MgCl2, EDTA-free protease inhibitors (Pierce)) and then lysed by sonication (3×1 sec pulse, 20% amplitude). The cell lysates were then subjected to centrifugation (100,000×g, 45 min at 4° C.) to isolate the cytosolic fraction in the supernatant and the membrane fraction as a pellet. The membrane pellet was resuspended in kinase buffer by sonication. […] The only exception was experiments involving DGKE; recombinant DGKE protein was most prominently expressed in the membrane fraction and so this fraction was utilized to study DGKE enzyme (see FIG. 8). Protein concentrations were measured using the Bio-Rad DC protein assay. Samples were stored at −80° C. until use.
Proteome concentration was adjusted to 2 mg/mL in kinase buffer. Proteomes were first pre-treated with compound (0.6 μL, 50× stock in DMSO) mixed with gentle flicking, and incubated for 30 min at 25° C. in a microfuge tube (30 μL reaction volume). […] Reactions were then quenched with 10 AL of 4×SDS-PAGE loading buffer. Protein samples (15 μL) were loaded onto 4-20% TGX Stain-Free Protein Midi Gel and resolved by SDS-PAGE at 150V for 55 min. Proteins were then transferred to a nitrocellulose blot by Bio-Rad Trans-Blot Turbo Transfer System (25V. 10 min) to enhance sensitivity. The nitrocellulose blot was then incubated in blocking solution (30 mL, 3% BSA in TBS-T) for 1 h at 25° C. with gentle shaking. The blot was then transferred immediately to antibody solution (30 mL, 5% BSA in ddH2O with 0.1% Tween20 and 1:3000 Streptavidin DyLight 550) and incubated for 2 h at 25° C. with gentle shaking. The blot was then rinsed 5 times for 5 min in TBS-T. and then transferred into ddH2O. The blot was then imaged by in-blot fluorescence scanning on a ChemiDoc MP Imaging System. Fluorescence intensity signals were normalized to total lane protein using the Bio-rad Stain Free imaging (Posch et al., 2013).
The percentage of enzyme activity remaining was determined by comparing integrated band intensities or luminescence of inhibitor—with DMSO-treated samples for gel-based chemical proteomic or ADP-glo assays, respectively. For both chemical proteomic and ADP-glo methods, nonlinear regression analysis was used to determine the IC50 values from a dose-response curve generated using GraphPad Prism. Data are shown as mean±s.e.m. Determination of significance was performed by one-way ANOVA. All statistical analyses were performed using GraphPad Prism.

[2] = target: T2, PLK1 (Serine/threonine-protein kinase PLK1) (Homo sapiens, UniProt P53350); assay: SILAC LC-MS ATP acyl phosphate probe competition, native kinases in HEK293T; assay type: binding; details: site Lys1; ATP 1 mM; Ketanserin, Ritanserin 100 μM; RF001 1 mM
T2 construct: Native kinases; endogenous in cells; host or cells: HEK293T soluble proteome
Method: Proteomes were diluted to 2 mg/ml in kinase buffer. The light and heavy proteomes (0.5 mg, 250 μL total reaction volume) were pre-treated with vehicle or compound, respectively (5 μL, DMSO (light) or 50× stock in DMSO (heavy)), mixed gently, and incubated at 25° C. for 30 min. […] After incubation, matched light and heavy proteomes were transferred and mixed in a 1:1 ratio in a two-dram vial containing 4:1:3 MeOH/CHCl3/H2O (2 mL MeOH, 500 AL CHCl3, 1.5 mL H2O) for extraction of proteins to remove excess probe, quickly vortexed, and centrifuged at 1,400×g for 3 min to pellet protein. Organic and aqueous layers were removed using a Pasteur pipette, and the protein pellet was transferred to a screw-top tube in 600 μL MeOH. A second extraction was performed by adding CHCl3 (150 μL) and H2O (600 μL) to each sample, vortexed, and centrifuged at 1,400×g for 3 min to pellet protein. Organic and aqueous layers were removed by pipetting. MeOH added to pellet (600 μL) and pellets were re-suspended by sonication (3×1 sec pulse, 20% amplitude) for a final extraction. Samples were then centrifuged at 17,000×g for 5 min to pellet protein and MeOH was removed by pipetting. […] To desalt the samples, each was transferred to a two-dram glass vial, and to the vial 4:1:2 MeOH/CHCl3/H2O (2 mL MeOH, 500 AL CHCl3, 1 mL H2O) was added. The vials were vortexed quickly, spun at 1.400×g for 3 min to pellet protein, and aqueous and organic layers were removed using a Pasteur pipette. The resulting protein pellet was transferred to a screw-top tube in 600 μL MeOH, and then CHCl3 (150 μL) and HO (600 μL) were added to extract protein a second time. The samples were vortexed quickly, centrifuged at 1,400×g to pellet protein, and the aqueous and organic layers were removed by pipetting. Resulting protein pellet was suspended in MeOH (600 μL) via sonication (3×1 sec pulse, 20% amplitude), centrifuged at 17,000×g for 5 min to pellet protein, and MeOH removed by pipetting. […]

T1 sequence (P51556 whole entry): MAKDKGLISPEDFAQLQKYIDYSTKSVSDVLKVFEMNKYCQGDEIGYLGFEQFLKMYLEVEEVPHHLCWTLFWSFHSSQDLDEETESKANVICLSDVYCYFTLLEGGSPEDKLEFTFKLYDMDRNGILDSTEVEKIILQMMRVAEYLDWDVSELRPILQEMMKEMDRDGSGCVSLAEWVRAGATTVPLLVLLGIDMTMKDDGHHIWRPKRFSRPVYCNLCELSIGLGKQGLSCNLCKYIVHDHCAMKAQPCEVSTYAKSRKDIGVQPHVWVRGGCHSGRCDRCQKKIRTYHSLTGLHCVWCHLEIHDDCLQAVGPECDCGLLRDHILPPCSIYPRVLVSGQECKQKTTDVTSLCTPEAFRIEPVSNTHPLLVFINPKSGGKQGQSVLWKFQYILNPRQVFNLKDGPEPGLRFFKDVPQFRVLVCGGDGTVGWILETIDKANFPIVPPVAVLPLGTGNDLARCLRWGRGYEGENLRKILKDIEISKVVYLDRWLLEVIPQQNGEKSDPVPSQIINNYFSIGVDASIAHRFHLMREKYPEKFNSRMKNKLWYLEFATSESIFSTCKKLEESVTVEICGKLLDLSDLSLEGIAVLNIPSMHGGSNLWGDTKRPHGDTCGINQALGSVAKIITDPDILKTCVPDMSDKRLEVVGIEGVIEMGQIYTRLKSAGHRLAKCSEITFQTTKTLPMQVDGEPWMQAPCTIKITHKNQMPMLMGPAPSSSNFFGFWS
T2 sequence (P53350 whole entry): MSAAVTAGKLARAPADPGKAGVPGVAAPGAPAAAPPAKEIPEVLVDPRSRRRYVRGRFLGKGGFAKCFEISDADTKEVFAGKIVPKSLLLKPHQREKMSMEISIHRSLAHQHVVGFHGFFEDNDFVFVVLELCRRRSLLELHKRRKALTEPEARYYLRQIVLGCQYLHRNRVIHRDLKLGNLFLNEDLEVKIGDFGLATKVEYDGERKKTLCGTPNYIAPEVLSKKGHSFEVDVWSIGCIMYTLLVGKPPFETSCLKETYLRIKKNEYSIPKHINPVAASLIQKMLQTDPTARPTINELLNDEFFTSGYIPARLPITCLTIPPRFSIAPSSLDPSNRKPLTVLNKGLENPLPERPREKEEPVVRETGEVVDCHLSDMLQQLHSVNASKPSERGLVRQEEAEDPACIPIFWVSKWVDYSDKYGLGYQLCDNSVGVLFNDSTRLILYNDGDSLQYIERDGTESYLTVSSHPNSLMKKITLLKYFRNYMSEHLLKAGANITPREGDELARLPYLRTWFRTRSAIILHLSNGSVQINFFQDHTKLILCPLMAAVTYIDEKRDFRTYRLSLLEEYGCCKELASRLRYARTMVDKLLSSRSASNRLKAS

SILAC ratio, PLK1 probe-modified peptide [2] | inhibition at 1000 µM ([1]; 1 mM, read-out: inhibition of DGKα activity in the probe-binding assay) [%] | Structure (SMILES) | IC50 ([1]; IC50, blockade of ATP probe labeling of DGKα (gel-based), 10 μM ATP probe, 30 min) [µM] | blockade of DGKα ATP probe labeling ([1]; 30 min) | IC50 ([1]; read-out: 95% confidence intervals for IC50 values, gel-based assay) [µM]
0.9 | > 80 | Fc1ccc(C(=C2CCNCC2)c2ccc(F)cc2)cc1 [RF001, 4-(Bis(4-fluorophenyl)methylene) piperidine] |  | blocked probe labeling in a concentration-dependent manner | 
1.0 |  | O=C(c1ccc(F)cc1)C1CCN(CCn2c(=O)[nH]c3ccccc3c2=O)CC1 [Ketanserin] |  | not ketanserin | 

Structure (SMILES) | SILAC ratio, PLK1 probe-modified peptide [2] | inhibition at 1000 µM ([1]; 1 mM, read-out: inhibition of DGKα activity in the probe-binding assay) [%] | IC50 ([1]; IC50, blockade of ATP probe labeling of DGKα (gel-based), 10 μM ATP probe, 30 min) [µM] | blockade of DGKα ATP probe labeling ([1]; 30 min) | IC50 ([1]; read-out: 95% confidence intervals for IC50 values, gel-based assay) [µM]
Cc1nc2sccn2c(=O)c1CCN1CCC(=C(c2ccc(F)cc2)c2ccc(F)cc2)CC1 [Ritanserin] | 1.5 |  | 57 | blocked probe labeling | 17 to 192
